Source: publication PMC6430017, “Structural and chemical insights into the covalent-allosteric inhibition of the protein kinase Akt” (Chemical Science, 2019)

What was measured:
Assay in all cases: SelectScreen Z'LYTE kinase profiling
Assay type in all cases: biochemical
Conditions in all cases: ATP at apparent KM
SYK = SYK (Homo sapiens, UniProt P43405)
Experimental: (§1) protein kinases at a compound concentration of 1 µM. Measurements were performed in duplicates
(§2) and at the particular apparent ATP KM of each individual kinase employing the activity based Z’LYTE®
(§3) kinase assay of the SelectScreen® Kinase Profiling Services (ThermoFisher Scientific).
(§4) kinases at a compound concentration of 1 µM. Measurements were performed in duplicates and at
(§5) the particular apparent ATP KM of each individual kinase employing the activity based Z’LYTE® kinase
(§6) assay of the SelectScreen® Kinase Profiling Services (ThermoFisher Scientific).

PAK4 = PAK4 (Homo sapiens, UniProt O96013)
Experimental: as §1, §2, §3, §4, §5, §6

PKN1 (PRK1) = PKN1 (PRK1) (Homo sapiens, UniProt Q16512)
Experimental: as §1, §2, §3, §4, §5, §6

DCAMKL2 (DCK2) = target: T1, DCAMKL2 (DCK2) (Homo sapiens, UniProt Q8N568)
T1 sequence (Q8N568 1-766): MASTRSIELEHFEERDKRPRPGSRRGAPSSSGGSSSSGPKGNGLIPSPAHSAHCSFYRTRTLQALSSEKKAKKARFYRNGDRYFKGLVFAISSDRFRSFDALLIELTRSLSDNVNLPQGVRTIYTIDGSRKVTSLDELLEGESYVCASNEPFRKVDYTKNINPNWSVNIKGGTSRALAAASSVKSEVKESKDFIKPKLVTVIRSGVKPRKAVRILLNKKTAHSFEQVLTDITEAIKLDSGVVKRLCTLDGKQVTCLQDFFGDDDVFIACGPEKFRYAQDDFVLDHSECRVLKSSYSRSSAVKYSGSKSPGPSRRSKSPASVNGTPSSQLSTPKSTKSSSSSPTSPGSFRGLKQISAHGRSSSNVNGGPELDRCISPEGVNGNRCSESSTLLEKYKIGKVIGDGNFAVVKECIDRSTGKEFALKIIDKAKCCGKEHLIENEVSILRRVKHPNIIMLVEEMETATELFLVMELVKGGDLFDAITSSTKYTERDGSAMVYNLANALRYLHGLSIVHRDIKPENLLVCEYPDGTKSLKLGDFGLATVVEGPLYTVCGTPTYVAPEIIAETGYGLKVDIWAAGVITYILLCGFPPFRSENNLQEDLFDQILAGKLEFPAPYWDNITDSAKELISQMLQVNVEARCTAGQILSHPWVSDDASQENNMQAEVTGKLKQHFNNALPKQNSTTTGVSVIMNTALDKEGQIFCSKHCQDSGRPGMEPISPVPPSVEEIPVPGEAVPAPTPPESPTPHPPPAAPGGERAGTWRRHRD
Experimental: as §1, §2, §3, §4, §5, §6

CHEK1 (CHK1) = target: T2, CHEK1 (CHK1) (Homo sapiens, UniProt O14757)
T2 sequence (O14757 1-476): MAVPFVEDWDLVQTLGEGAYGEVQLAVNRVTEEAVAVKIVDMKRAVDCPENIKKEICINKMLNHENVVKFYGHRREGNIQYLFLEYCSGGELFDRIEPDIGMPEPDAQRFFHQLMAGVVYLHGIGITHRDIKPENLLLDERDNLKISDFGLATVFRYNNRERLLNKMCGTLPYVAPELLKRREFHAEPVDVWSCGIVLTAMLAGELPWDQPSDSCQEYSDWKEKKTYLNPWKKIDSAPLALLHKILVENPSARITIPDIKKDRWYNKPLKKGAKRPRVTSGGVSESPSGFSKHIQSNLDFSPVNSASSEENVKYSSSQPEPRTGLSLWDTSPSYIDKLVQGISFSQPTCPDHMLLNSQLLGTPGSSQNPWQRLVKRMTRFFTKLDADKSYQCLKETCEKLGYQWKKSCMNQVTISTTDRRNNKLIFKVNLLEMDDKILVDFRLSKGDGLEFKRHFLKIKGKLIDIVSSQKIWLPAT
Experimental: as §1, §2, §3, §4, §5, §6

TXK = target: T3, TXK (Homo sapiens, UniProt P42681)
T3 sequence (P42681 1-527): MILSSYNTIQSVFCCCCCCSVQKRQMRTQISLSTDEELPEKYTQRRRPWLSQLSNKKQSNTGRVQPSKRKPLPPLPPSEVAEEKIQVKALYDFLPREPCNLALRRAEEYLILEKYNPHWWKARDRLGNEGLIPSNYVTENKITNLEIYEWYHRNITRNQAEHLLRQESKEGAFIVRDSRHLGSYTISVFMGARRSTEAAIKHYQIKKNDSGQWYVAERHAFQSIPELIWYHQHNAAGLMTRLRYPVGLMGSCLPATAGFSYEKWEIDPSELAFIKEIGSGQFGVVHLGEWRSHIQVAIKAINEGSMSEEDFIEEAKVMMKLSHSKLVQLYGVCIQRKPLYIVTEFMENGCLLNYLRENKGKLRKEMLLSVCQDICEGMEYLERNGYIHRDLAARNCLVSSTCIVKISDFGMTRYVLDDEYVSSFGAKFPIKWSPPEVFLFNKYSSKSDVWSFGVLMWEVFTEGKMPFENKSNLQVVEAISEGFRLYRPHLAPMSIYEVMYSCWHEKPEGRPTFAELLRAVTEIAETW
Experimental: as §1, §2, §3, §4, §5, §6

PDK1 Direct = target: T4, PDK1 Direct (Homo sapiens, UniProt O15530)
T4 sequence (O15530 1-556): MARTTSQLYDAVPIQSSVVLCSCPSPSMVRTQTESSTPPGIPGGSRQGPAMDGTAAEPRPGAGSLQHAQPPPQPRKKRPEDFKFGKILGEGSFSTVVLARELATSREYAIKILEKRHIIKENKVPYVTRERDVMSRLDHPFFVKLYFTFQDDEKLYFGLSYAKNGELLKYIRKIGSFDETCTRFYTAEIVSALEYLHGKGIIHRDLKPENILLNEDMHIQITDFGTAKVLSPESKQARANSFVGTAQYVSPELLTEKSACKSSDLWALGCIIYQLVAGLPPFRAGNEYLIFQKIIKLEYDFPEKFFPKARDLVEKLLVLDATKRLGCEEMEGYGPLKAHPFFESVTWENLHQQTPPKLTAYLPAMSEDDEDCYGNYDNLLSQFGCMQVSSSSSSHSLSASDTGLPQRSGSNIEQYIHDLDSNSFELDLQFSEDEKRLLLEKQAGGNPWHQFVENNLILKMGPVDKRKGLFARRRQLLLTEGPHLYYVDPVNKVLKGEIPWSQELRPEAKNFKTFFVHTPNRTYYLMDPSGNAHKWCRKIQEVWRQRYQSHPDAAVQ
Experimental: as §1, §2, §3, §4, §5, §6

Sequence of PAK4 (O96013 whole entry): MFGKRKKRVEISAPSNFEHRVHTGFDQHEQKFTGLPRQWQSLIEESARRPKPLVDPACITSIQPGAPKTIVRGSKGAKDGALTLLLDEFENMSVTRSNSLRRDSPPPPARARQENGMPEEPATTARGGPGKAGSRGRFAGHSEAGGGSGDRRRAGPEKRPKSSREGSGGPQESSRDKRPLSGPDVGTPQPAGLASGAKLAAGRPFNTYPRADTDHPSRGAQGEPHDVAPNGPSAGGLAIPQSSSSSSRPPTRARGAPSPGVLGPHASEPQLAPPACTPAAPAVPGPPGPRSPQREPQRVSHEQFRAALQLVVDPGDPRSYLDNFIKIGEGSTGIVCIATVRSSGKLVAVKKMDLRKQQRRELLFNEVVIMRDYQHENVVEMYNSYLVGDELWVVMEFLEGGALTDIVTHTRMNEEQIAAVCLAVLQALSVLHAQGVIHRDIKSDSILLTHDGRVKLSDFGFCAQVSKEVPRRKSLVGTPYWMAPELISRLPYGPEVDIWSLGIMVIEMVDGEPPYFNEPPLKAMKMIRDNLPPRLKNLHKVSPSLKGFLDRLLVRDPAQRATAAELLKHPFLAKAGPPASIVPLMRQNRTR
Sequence of PKN1 (PRK1) (Q16512 whole entry): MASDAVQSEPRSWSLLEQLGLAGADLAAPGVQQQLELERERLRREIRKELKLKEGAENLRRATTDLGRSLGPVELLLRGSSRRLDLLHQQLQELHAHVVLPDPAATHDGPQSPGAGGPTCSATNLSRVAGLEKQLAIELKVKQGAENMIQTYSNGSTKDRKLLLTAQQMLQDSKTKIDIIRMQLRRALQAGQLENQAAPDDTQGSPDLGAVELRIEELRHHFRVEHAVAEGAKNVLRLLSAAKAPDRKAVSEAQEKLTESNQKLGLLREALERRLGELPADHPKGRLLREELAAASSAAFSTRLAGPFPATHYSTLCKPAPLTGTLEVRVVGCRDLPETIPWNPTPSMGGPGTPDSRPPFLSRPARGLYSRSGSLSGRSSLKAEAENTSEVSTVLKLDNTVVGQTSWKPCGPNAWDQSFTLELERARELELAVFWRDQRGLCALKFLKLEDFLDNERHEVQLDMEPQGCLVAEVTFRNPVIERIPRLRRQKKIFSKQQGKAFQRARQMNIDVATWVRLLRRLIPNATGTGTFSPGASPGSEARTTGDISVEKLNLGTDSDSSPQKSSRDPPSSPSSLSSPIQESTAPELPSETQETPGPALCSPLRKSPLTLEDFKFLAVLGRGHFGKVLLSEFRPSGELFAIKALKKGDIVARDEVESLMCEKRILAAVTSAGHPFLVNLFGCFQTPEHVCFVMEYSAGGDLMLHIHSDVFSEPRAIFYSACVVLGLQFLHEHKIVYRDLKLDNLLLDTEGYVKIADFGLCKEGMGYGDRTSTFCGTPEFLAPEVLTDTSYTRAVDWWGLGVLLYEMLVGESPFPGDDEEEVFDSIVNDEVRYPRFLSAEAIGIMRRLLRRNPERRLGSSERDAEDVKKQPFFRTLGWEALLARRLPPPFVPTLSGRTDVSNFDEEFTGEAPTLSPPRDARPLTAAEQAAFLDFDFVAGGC

Compound | inhibition at 1 µM (SYK) | inhibition at 1 µM (PAK4) | inhibition at 1 µM (PKN1 (PRK1)) | inhibition at 1 µM (DCAMKL2 (DCK2)) | inhibition at 1 µM (CHEK1 (CHK1)) | inhibition at 1 µM (TXK) | inhibition at 1 µM (PDK1 Direct)
C=CC(=O)Nc1ccc2c(c1)n(C1CCN(Cc3ccc(-c4nc5cc[nH]c(=O)c5cc4-c4ccccc4)cc3)CC1)c(=O)n2C [24b] | 4% | 12% | -1% | -1% | -3% | -5% | 8%
C=CC(=O)Nc1cccc(C(=O)NC2CCN(Cc3ccc(-c4nc5cc[nH]c(=O)c5cc4-c4ccccc4)cc3)CC2)c1 [30b] | 15% | 8% | 1% | 3% | 9% | 2% | 1%
C=CC(=O)Nc1cc(NC(=O)NC2CCN(Cc3ccc(-c4nc5cc[nH]c(=O)c5cc4-c4ccccc4)cc3)CC2)ccc1Cl [compound 27] | 5% | 16% | 6% | -1% | 8% | -9% | 3%
